# How the values were obtained:
# [1] = tested on: P. aeruginosa PA103; assay: Implant model of infection with PA103; assay type: in vivo; details: prophylaxis tobramycin 3.5 mg/kg i.p. 1 h before implantation and infection, FIG. 2A
# Method: (§1) The implant model of infection in C57B mice was used for 10^6 PA103 (FIG. 2A) or 10^6 USA300 MRSA (FIG. 2C). The wound model of infection was used for 10^6 PA103 in C57BL mice (FIG. 2B) or diabetic db/db mice (FIG. 2D). Infection was carried out at the time of surgery by adding bacteria directly to the surgical sites. Immunomodulators, namely, LPS (10 ng or 100 ng), fMLP (10 ng or 100 ng), CCL3 (1 μg) were added topically at the surgical sites at the time of surgery & infection. GM-CSF (10 μg/kg), tobramycin (Tob at 3.5 mg/kg), and vancomycin (40 mg/kg) were added systemically by i.p. injection 1 h before surgical implantation and infection. Infection levels were determined 24 h following infection (N>4 animals/group; NS=not significant, * p<0.01, ** p<0.001, ***p<0.0001 One-way ANOVA).
# (§2) We assessed these immunomodulators for their ability to control wound and/or implant SS's in normal (C57BL/6) or diabetic (db/db) mice. We acknowledge that diabetic individuals are not as immunocompromised as other immunocompromised patient groups. […] All immunomodulators were added locally at the surgical sites at the time of infection, except GM-CSF (10 μg/kg) which was administered systemically by i.p. injection 1 h prior to surgery per its FDA-approved route of delivery. […] CCL3 and GM-CSF are also tested using the implant model of infection. Here, we tested CCL3 and GM-CSF in the wound model of infection in C57B mice.
# (§3) Implant surgery and wound surgery and surgical site infection are performed according to the following method. On the day of surgery, all mice are anesthetized by an intraperitoneal injection of a ketamine/xylazine mixture (90 mg/kg ketamine+5 mg/kg xylazine for mice). The back of the animals is shaved using an electric shave and scrubbed with alcohol swabs 3 times, a topical antiseptic solution (Hibiclens; chlorhexidine gluconate) is applied to the skin. The surgical procedures are performed with sterile instruments, sterile surgical gloves, and aseptic techniques as follows. […]
# [2] = tested on: P. aeruginosa PA103; assay: Wound model of infection with PA103 in normal (C57BL) mice; assay type: in vivo
# Method: as §1
# (§4) (15A) C57BL/6 mice received 40 mg/kg prophylaxis (Sys) vancomycin (Vanc) or 3.5 mg/kg tobramycin (Tobra) by i.p. injection. (15A) 1 h after antibiotic administration, 106 CFU of USA300 was added to implant after insertion into facia (Implant Model). (15B) 1 h after antibiotic administration, 10^6CFU of USA300 or 106CFU PA103 (Pa) were added full-thickness wounds in of C57BL/6 (Wound Model). Infection levels at implant surgical site (Tissue & Implant) or a distant site (Spleen), or wound tissues were assessed 24 h following infection. (N>4 animals/group, * p<0.01, ***p<0.0001, One-way ANOVA).
# as §2
# Implant surgery and wound surgery and surgical site infection are performed according to the following method. On the day of surgery, all mice are anesthetized by an intraperitoneal injection of a ketamine/xylazine mixture (90 mg/kg ketamine+5 mg/kg xylazine for mice). The back of the animals is shaved using an electric shave and scrubbed with alcohol swabs 3 times, a topical antiseptic solution (Hibiclens; chlorhexidine gluconate) is applied to the skin. The surgical procedures are performed with sterile instruments, sterile surgical gloves, and aseptic techniques as follows. For wound surgical procedure, a sterile biopsy punch (5-7 mm diameter) is used to punch through the full thickness of the back skin below the shoulder blades. Four 5-7 mm skin wounds are made on the back of each mouse. Wounds placed in this area cannot be reached by the animals and therefore are protected from self-licking. For implant surgery, a 4-mm long lateral skin incision is made on the upper back, and the skin is retracted. The space above the muscle is opened using blunt dissection with fine forceps, to create a rostral fascia indentation. Then, immunomodulators at indicated concentrations (in a 20 μL volume) or PBS control are injected into the fascia indentation.
# [3] = tested on: USA300 MRSA; assay: Implant model of infection with USA300 MRSA; assay type: in vivo
# Method: as §1, §4, §2
# as §3, with “follows. For wound surgical procedure, a sterile biopsy punch (5-7 mm diameter) is used to punch through the full thickness of the back skin below the shoulder blades.” for “follows.”
# [4] = tested on: leukocytes; assay: Leukocyte migration (H&E staining) and activation (MPO ELISA) in normal wound; assay type: in vivo, C57B mice; details: compared to PBS, FIGS. 10A-10D
# Source text: FIGS. 10A-10D illustrate that immunomodulatory treatment enhances leukocyte migration and neutrophil activation in a normal wound. (10A, 10B—CCL3, 10C—LPS, fMLF, 10D—GM-CSF), N=4; Significance determined as compared to PBS *<0.05, **p<0.01, ***p<0.001.
# We next examined the impact of CCL3 topical treatment on leukocyte migration by H&E staining, and on leukocyte activation by myeloperoxidase (MPO) measurements by ELISA. (MPO is primarily used as a marker for neutrophil activation but it can also be expressed to lesser extent in macrophages).
# [5] = tested on: MRSA; assay: Normal wound model of MRSA infection; assay type: in vivo; details: FIG. 6B
# Method: as §2
# as §3, with “follows. For wound surgical procedure, a sterile biopsy punch (5-7 mm diameter) is used to punch through the full thickness of the back skin below the shoulder blades.” for “follows.”
compound,measurement,setting,value
NC[C@H]1O[C@H](O[C@H]2[C@H](O)[C@@H](O[C@H]3O[C@H](CO)[C@@H](O)[C@H](N)[C@H]3O)[C@H](N)C[C@@H]2N)[C@H](N)C[C@@H]1O [tobramycin],bacterial loads on implants as compared to implants treated with immunomodulators,[1],significantly higher
same,infection levels in wound tissues after prophylaxis antibiotic,"[2]; C57BL/6 mice, 3.5 mg/kg i.p. 1 h before 10^6 CFU PA103, 24 h following infection, FIG. 15B",effective
CN[C@H](CC(C)C)C(=O)N[C@H]1C(=O)N[C@@H](CC(N)=O)C(=O)N[C@H]2C(=O)N[C@H]3C(=O)N[C@H](C(=O)N[C@H](C(=O)O)c4cc(O)cc(O)c4-c4cc3ccc4O)[C@H](O)c3ccc(c(Cl)c3)Oc3cc2cc(c3O[C@@H]2O[C@H](CO)[C@@H](O)[C@H](O)[C@H]2O[C@H]2C[C@](C)(N)[C@H](O)[C@H](C)O2)Oc2ccc(cc2Cl)[C@H]1O [vancomycin],infection levels at implant surgical site (Tissue & Implant) or a distant site (Spleen),"[3]; C57BL/6 mice, prophylaxis antibiotic i.p. 1 h before 10^6 CFU USA300, 24 h following infection, FIG. 15A",effective
same,bacterial loads on implants as compared to implants treated with immunomodulators,"[3]; prophylaxis vancomycin 40 mg/kg i.p., FIG. 15A & 2C",significantly higher
Granulocyte-macrophage colony-stimulating factor [GM-CSF],PA103 infection in wounds as compared to PBS-treated wounds,"[2]; C57BL mice, 10^6 PA103, systemic 10 μg/kg i.p. 1 h prior to surgery, 24 h, FIG. 2B",significantly reduce
same,"reduction of PA103 infection in wounds, compared with CCL3 or tobramycin","[2]; systemic GM-CSF 10 μg/kg i.p., FIG. 2B",not as effective
same,leukocyte migration and neutrophil activation in a normal wound,[4],enhances
"IL-1β: pro-inflammatory cytokine interleukin-1 (SEQ ID NO: 11, precursor)",infection control against P. aeruginosa PA103 in normal wounds,"[2]; C57B mice, immunomodulator added locally at time of infection, compared to PBS, FIGS. 3A, 4A, 4B, 6A",effective
same,controlling MRSA infection in normal wound model,[5],effective
